In patent US20240376070A1, “GPR52 MODULATOR COMPOUNDS” (NXERA PHARMA UK LIMITED, priority 2021, published 2024):
Converted amounts (≈) assume the structure as drawn. Values belong to the compound of their own block, whether it stands above or below them.

Experiments:
[1] = Plasma concentration-time data after PO dose of Example 2 in Beagle dogs; format: in vivo; conditions: dog, PO Example 2, all time points
Description: (§1) Systemic exposure of Example 2 and Intermediate 6 (Example 39 of Applicant's earlier application PCT/GB2021/050638 (WO2021/181122A1)) were assessed in male Sprague-Dawley rats and male Beagle dogs following oral (per os, PO) administration of Example 2. Plasma concentration-time data (mean values±standard deviation) are detailed in Tables 4 and 5.
(§2) Three male Sprague-Dawley rats (weighing 269-270 g) and three male Beagle dogs (weighing 7-10 kg), were administered a single dose of Example 2 via PO route, using the dose and vehicle specified in Table #. Following dosing, blood samples were taken at several time points (pre-dose, 5 min, 15 min, 30 min, 1 h, 2 h, 4 h, 8 h, 12 h and 24 h in both species, plus additional samples at 32 h and 48 h in dog) via serial bleeding of jugular vein (rat) or cephalic vein (dog), and centrifuged to separate plasma for quantitative bioanalysis of Example 2 and Intermediate 6 by LC-MS/MS.

[2] = Plasma concentration-time data after PO dose of Example 2 in Sprague-Dawley rats; format: in vivo; conditions: rat, PO Example 2, all time points
Description: as §1, §2

[3] = Thermodynamic solubility in biorelevant media; format: physicochemical; conditions: thermodynamic from solid
Description: This experiment was designed to evaluate the thermodynamic solubility of Example 2 in various biorelevant media (Blank Fasted State Simulated Intestinal Fluid (FaSSIF) pH 6.5, FaSSIF pH 6.5 and simulated gastric fluid (SGF) without enzyme pH 1.2).
A 10 mM stock solution of Example 2 in dimethyl sulfoxide (DMSO) was prepared. From the 10 mM stock solution, a 1 mM intermediate solution of Example 2 in DMSO was prepared. A working solution of 1 μM of Example 2 was prepared by diluting the intermediate solution in mobile phase solution (methanol: 2 mM ammonium acetate containing suitable internal standard—carbamazepine). The working solution was serially diluted in mobile phase solution up to 8 linearity points to prepare standard solutions for plotting a calibration curve. The area for each standard solution was analyzed using LCMS/MS. The normalized area values were plotted vs. concentration to achieve a calibration equation.
Example 2 (1 mg) was added to 1 mL of each desired biorelevant media (SGF without enzyme pH 1.2, Blank FaSSIF pH 6.5 and FaSSIF pH 6.5) to achieve a theoretical concentration equivalent to 1 mg/mL.
The resulting solutions were then kept on RotoSpin (shaker) at 50 rpm for 4 hours at room temperature (25° C.). After the incubation period, the content was filtered through a 0.45 μm PVDF (hydrophilic) syringe filter and the filtrate was taken for quantification by LCMS/MS. The filtrate was diluted in mobile phase and subsequently, the area under the curve (AUC) was ascertained for diluted sample using LCMS/MS. From the AUC of test sample the corresponding concentration was calculated using 6 to 8 point linearity/calibration curve.

human GPR52 = molecular target: T1, human GPR52 (Homo sapiens, UniProt Q9Y2T5); assay: GPR52 Agonist Functional cAMP Assay; format: cell-based; conditions: HEKf cells infected with human GPR52 BacMam, cAMP HTRF, 30 min 37° C.; read-out: pEC50 average (converted)
T1 construct: expressed in transfected cells; host or cells: HEKf suspension cells, BacMam (modified baculovirus) transduction
T1 sequence (Q9Y2T5 whole entry): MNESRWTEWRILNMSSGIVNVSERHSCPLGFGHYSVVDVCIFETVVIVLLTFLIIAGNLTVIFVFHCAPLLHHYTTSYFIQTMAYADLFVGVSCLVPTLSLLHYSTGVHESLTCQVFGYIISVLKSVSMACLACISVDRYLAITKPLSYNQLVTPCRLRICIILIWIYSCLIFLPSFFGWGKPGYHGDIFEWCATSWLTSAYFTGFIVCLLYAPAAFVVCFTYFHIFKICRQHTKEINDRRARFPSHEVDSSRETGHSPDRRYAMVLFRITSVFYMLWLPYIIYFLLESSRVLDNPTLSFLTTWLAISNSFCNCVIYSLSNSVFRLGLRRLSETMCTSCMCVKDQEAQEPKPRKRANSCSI
Description: HEKf suspension cells were infected for 24 h with 0.1% v/v human GPR52 expressing BacMam virus, a modified baculovirus designed for mammalian gene expression. Following BacMam infection, cells were pelleted by centrifugation (335 g, 5 min), resuspended in cell freezing medium (Sigma) and frozen at −150° C. until required. On experiment day, 25 nL GPR52 compound dilutions, prepared in DMSO, were stamped onto proxiplates (PerkinElmer) by a LabCyte ECHO acoustic dispenser. Frozen cells were thawed and resuspended in assay stimulation buffer (Cisbio) containing 0.5 mM 3-iso-butyl-1-methylxanthine (IBMX, Sigma) to achieve a density of 2000 cells per well. 10 μl cells were added to assay plates using a Multidrop Combi Reagent Dispenser (ThermoFisher) before centrifugation (1 min). Cells were incubated with compounds at 37° C. for 30 min prior to addition of cAMP detection reagents (HiRange cAMP kit, Cisbio) which were prepared according to the manufacturer's instructions. Plates were shaken for 1 h at room temperature before reading on a PHERAstar FS plate reader (BMG Labtech) using standard HTRF settings. HTRF ratios were obtained by dividing the acceptor emissions (665 nm) by the donor emissions (620 nm) and multiplying by 10,000. […] Further pharmacokinetic data for Intermediate 6 is provided in Applicant's earlier application PCT/GB2021/050638 (see Example 39).

[4] = tested on: caffeine-induced hyperlocomotor response; assay: Caffeine-induced locomotor activity in rat; format: in vivo, Sprague-Dawley rats; conditions: rat, 0.1, 0.3, 1 and 3 mg/kg PO, 60 min before caffeine 15 mg/kg s.c., 2 h activity
Description: Caffeine, a non-selective adenosine receptor antagonist, is a psychostimulant which increases rodent locomotor activity principally via blockade of A2A receptors (Br. J. Pharmacol., 2000, 129, 1465). These receptors are densely expressed on the terminals of GABAergic striatopallidal neurons in the indirect pathway of the basal ganglia, in which dopamine D2 receptors are co-expressed (J. Comp. Neurol., 1998, 401, 163; J. Comp. Neurol., 2001, 431, 331). Tonic activation of A2A receptors decreases the affinity of D2 receptors to dopamine and antagonism of A2A receptors facilitates dopaminergic signalling (Curr. Pharm. Des., 2008, 14, 1468). […] Male Sprague-Dawley rats (200-250 g) were housed in groups with a 12 h light/dark cycle (lights on at 07.00), at an ambient temperature of 21±2° C. and with standard pelleted diet and water ad libitum. Testing was carried out in the light phase. On the day of the experiment, animals were habituated to the locomotor cages for a 60-minute period. Subsequently, they were dosed with vehicle or Intermediate 6 (Example 39 of WO2021/181122A1) (0.1, 0.3, 1 and 3 mg/kg) by the oral route and returned to the appropriate locomotor cage. […] Locomotor activity was assessed for a 2 h period after caffeine treatment. […] SEMs were calculated from the residuals of the statistical model. […]

Rat IV pharmacokinetics = format: in vivo, Sprague-Dawley rats; conditions: male, Sprague-Dawley, plasma, IV 1 mg/kg, n = 3
Description: The pharmacokinetic profiles of Intermediate 6 (Example 39 of WO2021/181122A1) were assessed in male Sprague-Dawley rats via intravenous (IV) delivery. Pharmacokinetic data (mean values±standard deviation) for Intermediate 6 (Example 39 of WO2021/181122A1) are detailed in Table 7.
For pharmacokinetic analysis, groups of three male Sprague-Dawley rats, ranging in weight between 200 and 230 g, were administered a single dose of Intermediate 6 (Example 39 of WO2021/181122A1) via IV, using the dose, dose volume and vehicle specified in Table 7. Following dosing, blood samples were taken at several time points (pre-dose, 2 min, 5 min, 15 min, 30 min, 1 h, 3 h, 6 h, 12 h and 24 h for IV) via serial tail vein bleeds, and centrifuged to separate plasma for analysis by LC-MS/MS. WinNonlin v8.2 statistics software (Pharsight Corporation, California, USA) was used to generate pharmacokinetic parameters using non-compartmental analysis.

[5] = Rat IV brain penetration (Kp,uu); format: in vivo, Sprague-Dawley rats; conditions: male, Sprague-Dawley, brain and plasma, IV 1 mg/kg, n = 3, unbound brain-to-plasma ratio
Description: Plasma and brain exposure were evaluated to assess the brain penetration of Intermediate 6 (Example 39 of WO2021/181122A1), following IV administration. Unbound brain-to-plasma ratio (Kp,uu) was calculated, as detailed in Table 7, following experimental determination of binding in rat plasma and brain homogenate.
For brain penetration assessment, male Sprague-Dawley rats (n=3) were administered a single 1 mg/kg dose (formulated in 10% DMAC+10% Solutol HS15+80% saline) via the IV route. After 10 min post-dose, animals were sacrificed and brains extracted, homogenised with 2 volumes (w/v) of 50 mM sodium phosphate buffer (pH 7.4), and analysed by LC-MS/MS. Blood samples were removed at the same time point via tail vein bleed, centrifuged and the plasma analysed by LC-MS/MS.
To permit calculation of unbound brain-to-plasma ratio (Kp,uu), test compound binding in rat plasma and brain homogenate was performed, using Rapid Equilibrium Dialysis (RED). […]
After incubation, the contents of each plasma/brain and buffer compartment were removed and mixed with equal volumes of control dialysed buffer or plasma/brain to maintain matrix similarity for analysis. […] Fraction unbound (Fu) in plasma and brain was calculated using the following formula, then used to correct total plasma and brain concentrations to derive the Kp,uu:

SMILES: Cc1nn(-c2cc(Cc3cc(F)cc(C(F)(F)F)c3)ccn2)c(COP(=O)(O)O)c1C(N)=O [Example 2]
Plasma concentrations of Example 2 [1]: < 1 ng/mL | Plasma concentrations of Example 2 [2]: < 1 ng/mL | solubility at 4 h ([3]; SGF without enzyme, simulated gastric fluid, SGF, pH 1.2, 25° C.): 13.1 µM (≈ 6.38 µg/mL) | solubility at 4 h ([3]; fassgf or other biorelevant, Blank FaSSIF, pH 6.5, 25° C.): 1890 µM (≈ 922 µg/mL) | solubility at 4 h ([3]; FaSSIF, pH 6.5, 25° C.): 1830 µM (≈ 894 µg/mL)

SMILES: Cc1nn(-c2cc(Cc3cc(F)cc(C(F)(F)F)c3)ccn2)c(CO)c1C(N)=O [Intermediate 6, 1-(4-(3-fluoro-5-(trifluoromethyl)benzyl)pyridin-2-yl)-5-(hydroxymethyl)-3-methyl-1H-pyrazole-4-carboxamide]
EC50 (human GPR52): 6.31 nM | effect on caffeine-induced hyperlocomotor response [4]: dose-dependent reduction of the caffeine-induced hyperlocomotor response, reaching statistical significance at 1 and 3 mg/kg | clearance (Rat IV pharmacokinetics): 8.8 ± 1.1 mL/min/kg | Kp uu at 10 min [5]: 0.42 ± 0.08

SMILES: Cc1nn(-c2cc(Cc3cc(F)cc(C(F)(F)F)c3)ccn2)c(CO)c1C(=O)NCCO [Intermediate 7, 1-(4-(3-fluoro-5-(trifluoromethyl)benzyl)pyridin-2-yl)-N-(2-hydroxyethyl)-5-(hydroxymethyl)-3-methyl-1H-pyrazole-4-carboxamide]
EC50 (human GPR52): 2.51 nM

SMILES: Cc1nn(-c2ccnc(Cc3cc(F)cc(C(F)(F)F)c3)c2)c(CO)c1C(N)=O [Intermediate 10, 1-(2-(3-fluoro-5-(trifluoromethyl)benzyl)pyridin-4-yl)-5-(hydroxymethyl)-3-methyl-1H-pyrazole-4-carboxamide]
EC50 (human GPR52): 31.6 nM

Results, then the compound that gave them:

EC50 (human GPR52): 31.6 nM
SMILES: Cc1nn(-c2ccnc(Cc3cc(F)cc(C(F)(F)F)c3)c2)c(CO)c1C(=O)NCCO [Intermediate 11, 1-(2-(3-fluoro-5-(trifluoromethyl)benzyl)pyridin-4-yl)-N-(2-hydroxyethyl)-5-(hydroxymethyl)-3-methyl-1H-pyrazole-4-carboxamide]

EC50 (human GPR52): 10 nM
SMILES: CNC(=O)c1c(C)nn(-c2cc(Cc3cc(F)cc(C(F)(F)F)c3)ccn2)c1CO [Intermediate 12, 1-(4-(3-fluoro-5-(trifluoromethyl)benzyl)pyridin-2-yl)-5-(hydroxymethyl)-N,3-dimethyl-1H-pyrazole-4-carboxamide]

EC50 (human GPR52): 3.98 nM
SMILES: Cc1nn(-c2cc(Cc3cc(F)cc(C(F)F)c3)ccn2)c(CO)c1C(N)=O [Intermediate 16, 1-(4-(3-(difluoromethyl)-5-fluorobenzyl)pyridin-2-yl)-5-(hydroxymethyl)-3-methyl-1H-pyrazole-4-carboxamide]
